For this assay, the target named is T1, KRAS G12C 1-169, his-tagged protein, GDP-loaded (Homo sapiens, UniProt P01116, G12C).
T1 construct: KRAS G12C 1-169, his-tagged protein, GDP-loaded
Nature of the assay: Biochemical assay: covalent modification of KRAS G12C measured by mass spectrometry (RapidFire/TOF or Q-Exactive). In kind it is binding. The settings on record: covalent binding to (modification of) KRAS G12C after a ten minute incubation period. An outline of the steps:
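GDP-loaded KRAS G12C 1-169 (his-tagged) at 2 μM or 0.5 μM in 20 mM Hepes, 150 mM NaCl, 1 mM MgCl2, incubated with compound at 100, 30 or 10 μM at room temperature for 10 min, 30 min, 2 h or 24 h, then quenched with formic acid. Intact-protein LC-MS, deconvolved; percent modification from modified versus unmodified protein.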
In the case of `C=CC(=O)N1C[C@H](C)N(c2nc(N3CC(N(C)C)C3)nc3c(F)c(-c4c(F)ccc5cnn(C)c45)c(Cl)cc23)C[C@H]1C` (atropisomer, axis not shown) [Compound 156, 1-((2R,5S)-4-((S)-6-chloro-2-(3-(dimethylamino)azetidin-1-yl)-8-fluoro-7-(6-fluoro-1-methyl-1H-indazol-7-yl)quinazolin-4-yl)-2,5-dimethylpiperazin-1-yl)prop-2-en-1-one], the Binding % result is reported as “+++ (+++ indicates binding activity greater than 80%)”. With `C=CC(=O)N1C[C@H](C)N(c2nc(OC[C@@H]3CCCN3C)nc3c(F)c(-c4c(C)ccc5cnn(C)c45)c(Cl)cc23)C[C@H]1C` (atropisomer, axis not shown) [Compound 234, 1-((2R,5S)-4-((S)-6-chloro-7-(1,6-dimethyl-1H-indazol-7-yl)-8-fluoro-2-(((S)-1-methylpyrrolidin-2-yl)methoxy)quinazolin-4-yl)-2,5-dimethylpiperazin-1-yl)prop-2-en-1-one], the Binding % entry is recorded as “++ (++ indicates binding activity from 50 to 80%)”.

With `C=CC(=O)N1C[C@H](C)N(c2nc(N3CC(N(C)C)C3)nc3c(F)c(-c4c(C)ccc5onc(N)c45)c(Cl)cc23)C[C@H]1C` [Compound 95, 1-((2R,5S)-4-((R)-7-(3-amino-5-methylbenzo[d]isoxazol-4-yl)-6-chloro-2-(3-(dimethylamino)azetidin-1-yl)-8-fluoroquinazolin-4-yl)-2,5-dimethylpiperazin-1-yl)prop-2-en-1-one], the Binding % entry was “+++ (+++ indicates binding activity greater than 80%)”. Next, `C=CC(=O)N1C[C@H](C)N(c2nc(N3CC(N(C)C)C3)nc3c(F)c(N4CCCc5ccccc54)c(Cl)cc23)C[C@H]1C` [Compound 265, 1-((2R,5S)-4-(6-chloro-7-(3,4-dihydroquinolin-1(2H)-yl)-2-(3-(dimethylamino)azetidin-1-yl)-8-fluoroquinazolin-4-yl)-2,5-dimethylpiperazin-1-yl)prop-2-en-1-one]: “++ (++ indicates binding activity from 50 to 80%)”.

On to `C=CC(=O)N1C[C@H](C)N(c2nc(OCC(C)(C)N(C)C)nc3c(F)c(-c4c(C)ccc5[nH]nc(C)c45)c(Cl)cc23)C[C@H]1C` [Compound 226, 1-((2R,5S)-4-(6-chloro-7-(3,5-dimethyl-1H-indazol-4-yl)-2-(2-(dimethylamino)-2-methylpropoxy)-8-fluoroquinazolin-4-yl)-2,5-dimethylpiperazin-1-yl)prop-2-en-1-one], for which the Binding % result was “++ (++ indicates binding activity from 50 to 80%)”.

Take `C=CC(=O)N1C[C@H](C)N(c2nc(N3CC(N(C)C)C3)nc3c(F)c(-c4c(C)ccc5ncn(C)c45)c(Cl)cc23)C[C@H]1C` [Compound 132, 1-((2R,5S)-4-(6-chloro-7-(1,6-dimethyl-1H-benzo[d]imidazol-7-yl)-2-(3-(dimethylamino)azetidin-1-yl)-8-fluoroquinazolin-4-yl)-2,5-dimethylpiperazin-1-yl)prop-2-en-1-one]: the Binding % entry was “+ (+ indicates binding activity greater than 0% and up to 50%)”.

With `C=CC(=O)N1C[C@H](C)N(c2nc(OC[C@@H]3CCCN3C(C)C)nc3c(F)c(-c4c(C)ccc5[nH]nc(C)c45)c(Cl)cc23)C[C@H]1C` [Compound 247, 1-((2R,5S)-4-(6-chloro-7-(3,5-dimethyl-1H-indazol-4-yl)-8-fluoro-2-(((S)-1-isopropylpyrrolidin-2-yl)methoxy)quinazolin-4-yl)-2,5-dimethylpiperazin-1-yl)prop-2-en-1-one], the Binding % entry is on record as “++ (++ indicates binding activity from 50 to 80%)”. As to `C=CC(=O)N1C[C@H](C)N(c2nc(OC3CCN(C(C)C)CC3)nc3c(F)c(-c4c(C)ccc5cnn(C)c45)c(Cl)cc23)C[C@H]1C` (atropisomer, axis not shown) [Compound 167, 1-((2R,5S)-4-((R)-6-chloro-7-(1,6-dimethyl-1H-indazol-7-yl)-8-fluoro-2-(1-isopropylpiperidin-4-yloxy)quinazolin-4-yl)-2,5-dimethylpiperazin-1-yl)prop-2-en-1-one], the Binding % result was “+++ (+++ indicates binding activity greater than 80%)”. Next, `C=CC(=O)N1C[C@H](C)N(c2nc(OC[C@@H]3CN(C)CCO3)nc3c(F)c(-c4c(C)ccc5[nH]nc(C6CC6)c45)c(Cl)cc23)C[C@H]1C` [Compound 187, 1-((2R,5S)-4-(6-chloro-7-(3-cyclopropyl-5-methyl-1H-indazol-4-yl)-8-fluoro-2-(((S)-4-methylmorpholin-2-yl)methoxy)quinazolin-4-yl)-2,5-dimethylpiperazin-1-yl)prop-2-en-1-one]: “+++ (+++ indicates binding activity greater than 80%)”; `C=CC(=O)N1C[C@H](C)N(c2nc(OC[C@H]3CCCN3C)nc3c(F)c(-c4c(C)ccc5cnn(C)c45)c(Cl)cc23)C[C@H]1C` (atropisomer, axis not shown) [Compound 261, 1-((2R,5S)-4-((S)-6-chloro-7-(1,6-dimethyl-1H-indazol-7-yl)-8-fluoro-2-(((R)-1-methylpyrrolidin-2-yl)methoxy)quinazolin-4-yl)-2,5-dimethylpiperazin-1-yl)prop-2-en-1-one]: “+++ (+++ indicates binding activity greater than 80%)”; `C=CC(=O)N1C[C@H](C)N(c2nc(N3CC(N(C)C)C3)nc3c(F)c(-c4c(C)ccc5c(N)noc45)c(Cl)cc23)C[C@H]1C` [Compound 71, 1-((2R,5S)-4-(7-(3-amino-6-methylbenzo[d]isoxazol-7-yl)-6-chloro-2-(3-(dimethylamino)azetidin-1-yl)-8-fluoroquinazolin-4-yl)-2,5-dimethylpiperazin-1-yl)prop-2-en-1-one]: “+ (+ indicates binding activity greater than 0% and up to 50%)”. Take `C=CC(=O)N1C[C@H](C)N(c2nc(OC[C@@H]3C[C@H](OC)CN3C)nc3c(F)c(-c4c(C)ccc5cnn(C)c45)c(Cl)cc23)C[C@H]1C` [Compound 197, 1-((2R,5S)-4-(6-chloro-7-(1,6-dimethyl-1H-indazol-7-yl)-8-fluoro-2-(((2S,4S)-4-methoxy-1-methylpyrrolidin-2-yl)methoxy)quinazolin-4-yl)-2,5-dimethylpiperazin-1-yl)prop-2-en-1-one]: the Binding % result is given as “+++ (+++ indicates binding activity greater than 80%)”. As for `C=CC(=O)N1C[C@H](C)N(c2nc(OC[C@@H]3CCCN3C(C)C)nc3c(F)c(-c4c(C)ccc5[nH]nc(C6CC6)c45)c(Cl)cc23)C[C@H]1C` [Compound 237, 1-((2R,5S)-4-(6-chloro-7-(3-cyclopropyl-5-methyl-1H-indazol-4-yl)-8-fluoro-2-(((S)-1-isopropylpyrrolidin-2-yl)methoxy)quinazolin-4-yl)-2,5-dimethylpiperazin-1-yl)prop-2-en-1-one], the Binding % result is “++ (++ indicates binding activity from 50 to 80%)”.

On to `C=CC(=O)N1C[C@H](C)N(c2nc(OC[C@@H]3CN(C)CCO3)nc3c(F)c(-c4c(C)ccc5[nH]nc(C)c45)c(Cl)cc23)C[C@H]1C` [Compound 188, 1-((2R,5S)-4-(6-chloro-7-(3,5-dimethyl-1H-indazol-4-yl)-8-fluoro-2-(((S)-4-methylmorpholin-2-yl)methoxy)quinazolin-4-yl)-2,5-dimethylpiperazin-1-yl)prop-2-en-1-one], for which the Binding % entry is “+++ (+++ indicates binding activity greater than 80%)”. The result for `C=CC(=O)N1C[C@H](C)N(c2nc(N3CC(N(C)C)C3)nc3c(F)c(-c4ccc(F)c5cnn(C6CC6)c45)c(Cl)cc23)C[C@H]1C` (atropisomer, axis not shown) [Compound 217, 1-((2R,5S)-4-((S)-6-chloro-7-(1-cyclopropyl-4-fluoro-1H-indazol-7-yl)-2-(3-(dimethylamino)azetidin-1-yl)-8-fluoroquinazolin-4-yl)-2,5-dimethylpiperazin-1-yl)prop-2-en-1-one] reads “+ (+ indicates binding activity greater than 0% and up to 50%)”; that for `C=CC(=O)N1C[C@H](C)N(c2nc(N3CC(N(C)C)C3)nc3c(F)c(-c4c(C)ccc5cnn(C)c45)c(C(F)(F)F)cc23)C[C@H]1C` [Compound 171, 1-((2R,5S)-4-(7-(1,6-dimethyl-1H-indazol-7-yl)-2-(3-(dimethylamino)azetidin-1-yl)-8-fluoro-6-(trifluoromethyl)quina-zolin-4-yl)-2,5-dimethylpiperazin-1-yl)prop-2-en-1-one], “+++ (+++ indicates binding activity greater than 80%)”; that for `C=CC(=O)N1[C@H](C)CN(c2nc(N3CC(N(C)C)C3)nc3c(F)c(-c4c(C)ccc5[nH]nc(C)c45)c(Cl)cc23)C[C@@H]1C` (atropisomer, axis not shown) [Compound 152, 1-((2S,6R)-4-((R)-6-chloro-7-(3,5-dimethyl-1H-indazol-4-yl)-2-2(3-(dimethylamino)azetidin-1-yl)-8-fluoroquinazolin-4-yl)-2,6-dimethylpiperazin-1-yl)prop-2-en-1-one], “+++ (+++ indicates binding activity greater than 80%)”. In the case of `C=CC(=O)N1C[C@H](C)N(c2nc(OC[C@H]3CN(C)CCO3)nc3c(F)c(-c4c(C)ccc5[nH]nc(C)c45)c(Cl)cc23)C[C@H]1C` [Compound 190, 1-((2R,5S)-4-(6-chloro-7-(3,5-dimethyl-1H-indazol-4-yl)-8-fluoro-2-(((R)-4-methylmorpholin-2-yl)methoxy)quinazolin-4-yl)-2,5-dimethylpiperazin-1-yl)prop-2-en-1-one], the Binding % result is “+++ (+++ indicates binding activity greater than 80%)”. Next, `C=CC(=O)N1C[C@H](C)N(c2nc(N3CC(N(C)C)C3)nc3c(F)c(-c4c(F)ccc5cnn(C)c45)c(Cl)cc23)C[C@H]1C` (atropisomer, axis not shown) [Compound 155, 1-((2R,5S)-4-((R)-6-chloro-2-(3-(dimethylamino)azetidin-1-yl)-8-fluoro-7-(6-fluoro-1-methyl-1H-indazol-7-yl)quinazolin-4-yl)-2,5-dimethylpiperazin-1-yl)prop-2-en-1-one]: “+ (+ indicates binding activity greater than 0% and up to 50%)”.

(Values after patent US11377441B2, “Covalent inhibitors of KRAS” (Araxes Pharma LLC, priority 2017, dated 2022).)
